Measured values published in PMC5011342, “A high throughput drug screening assay to identify compounds that promote oligodendrocyte differentiation using acutely dissociated and purified oligodendrocyte precursor cells” (BMC Research Notes, 2016).
Where two headings read alike, the source gives them in different places.

How the values were obtained:
expanded OPCs = assay: cells; conditions: for 0.1 µM (% DMSO) / 1 µM (% DMSO) / 10 µM (% DMSO): alamarBlue viability of expanded OPCs, relative to DMSO control; for 0.1 µM (% DMSO): compound at 0.1 µM; for 1 µM (% DMSO): compound at 1 µM; for 10 µM (% DMSO): compound at 10 µM; for viability at 0.1 µM / viability at 1 µM / viability at 10 µM: Rattus norvegicus, 72 h
How it was run: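 Expanded OPCs seeded at 10,000 cells/well in differentiation media, then exposed to NCC library compounds at 10, 1 and 0.1 µM (quadruplicate, 0.1% DMSO) for three days. Viability read as alamarBlue fluorescence (560/590 nm) after 4 h at 37 °C; tunicamycin 5 ng/ml served as toxicity control.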

[1] = test system: acutely dissociated and purified rat OPCs; assay: Acute OL differentiation assay (MBP expression/cell, immunofluorescent image quantification); type: cell-based; conditions: for activation at 0.08 µM / activation at 2 µM / activation at 10 µM / activation at 0.4 µM: Rattus norvegicus
How it was run: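 Oligodendrocyte precursor cells were enriched from P6-P7 Sprague–Dawley rat brains by immunopanning (RAN-2 and GalC depletion, O4 selection), plated at 5000 cells/well in serum-free, mitogen-free differentiation media on PDL/laminin 96-well view plates, centrifuged at 200×g, and pre-incubated 1–2 h before test compounds were added in quadruplicate. On DIV4, cells were fixed, stained for MBP and DAPI, imaged automatically, and MBP expression per cell was quantified.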

[2] = read-out: 0.1 µM (% DMSO), alamarBlue viability of expanded OPCs, compound at 0.1 µM, sheet All Tox data
[3] = read-out: 1 µM (% DMSO), alamarBlue viability of expanded OPCs, compound at 1 µM, sheet All Tox data
[4] = read-out: 10 µM (% DMSO), alamarBlue viability of expanded OPCs, compound at 10 µM, sheet All Tox data
[5] = 2 uM test compound, relative to quetiapine, sheet "All OLga data", read-out: OL differentiation, 2 uM (% Quet)
[6] = 10 uM test compound, relative to quetiapine, sheet "All OLga data", read-out: OL differentiation, 10 uM (% Quet)
[7] = read-out: 0.1 µM (% DMSO), alamarBlue viability, NCC library compound at 0.1 µM, sheet "All Tox data"
[8] = read-out: 1 µM (% DMSO), alamarBlue viability, NCC library compound at 1 µM, sheet "All Tox data"
[9] = read-out: 10 µM (% DMSO), alamarBlue viability, NCC library compound at 10 µM, sheet "All Tox data"
[10] = 0.4 uM test compound, relative to quetiapine, sheet "All OLga data", read-out: OL differentiation, 0.4 uM (% Quet)
[11] = test compound at 2 uM, NCC library screen, sheet "All OLga data", relative to quetiapine, read-out: 2 uM (% Quet)
[12] = test compound at 10 uM, NCC library screen, sheet "All OLga data", relative to quetiapine, read-out: 10 uM (% Quet)

Structure (SMILES)	0.1 µM (% DMSO) (expanded OPCs)	1 µM (% DMSO) (expanded OPCs)	10 µM (% DMSO) (expanded OPCs)	viability at 0.1 µM (expanded OPCs; [2]) [%]	viability at 1 µM (expanded OPCs; [3]) [%]	viability at 10 µM (expanded OPCs; [4]) [%]	activation at 2 µM [1, 11] [%]	activation at 10 µM [1, 12] [%]	also measured
Oc1c(Cl)cc(Cl)c(Cl)c1Cc1c(O)c(Cl)cc(Cl)c1Cl [Hexachlorophene]	115.4	10.8	9.0	–	–	–	–	–	activation at 0.08 µM ([1]; read-out: 0.08 uM (% Quet)): -122%
CC(=O)NCCCCCCNC(C)=O [Hexamethylene bisacetamide]	–	–	–	80.5	83.1	87.3	–	–	activation at 2 µM [1, 5]: 4.1%; activation at 10 µM [1, 6]: 12.8%
COC(=O)C[C@](O)(CCCC(C)(C)O)C(=O)O[C@@H]1C(OC)=C[C@]23CCCN2CCc2cc4c(cc2[C@H]13)OCO4 [Homoharringtonine]	–	–	–	–	–	–	–	–	viability at 0.1 µM (expanded OPCs; [7]): 10.7%; viability at 1 µM (expanded OPCs; [8]): 9.9%; viability at 10 µM (expanded OPCs; [9]): 9.6%; activation at 0.08 µM ([1]; test compound at 0.08 uM, NCC library screen, sheet "All OLga data", relative to quetiapine, read-out: 0.08 uM (% Quet)): -112%; activation at 0.4 µM ([1]; test compound at 0.4 uM, NCC library screen, sheet "All OLga data", relative to quetiapine, read-out: 0.4 uM (% Quet)): -172%
C=CCc1ccc(O)c(-c2ccc(O)c(CC=C)c2)c1 [Honokiol]	–	–	–	95.4	78.2	11.4	–	–	activation at 0.4 µM [1, 10]: 9.1%
C/C=C1\[C@H]2C=C(C)C[C@]1(N)c1ccc(=O)[nH]c1C2 [Huperzine A]	–	–	–	–	–	–	-19.5	-60.7	viability at 0.1 µM (expanded OPCs; [7]): 94.2%; viability at 1 µM (expanded OPCs; [8]): 90%; viability at 10 µM (expanded OPCs; [9]): 93.8%
NS(=O)(=O)c1cc2c(cc1Cl)NCNS2(=O)=O [Hydrochlorothiazide]	96.6	97.1	90.6	–	–	–	–	–	activation at 2 µM ([1]; test compound at 2 uM, MBP expression relative to quetiapine, NCC library screen, sheet "All OLga data", read-out: 2 uM (% Quet)): -36%; activation at 10 µM ([1]; test compound at 10 uM, MBP expression relative to quetiapine, NCC library screen, sheet "All OLga data", read-out: 10 uM (% Quet)): -46%
CCCC(=O)O[C@]1(C(=O)COC(=O)CC)CC[C@H]2[C@@H]3CCC4=CC(=O)CC[C@]4(C)[C@H]3[C@@H](O)C[C@@]21C [Hydrocortisone buteprate]	112.3	102.8	90.3	–	–	–	19.4	13.5	–
NS(=O)(=O)c1cc2c(cc1C(F)(F)F)NCNS2(=O)=O [Hydroflumethiazide]	104.6	96.9	87.1	–	–	–	-24.5	-39	–
O=C(O)c1cc2ccccc2c(Cc2c(O)c(C(=O)O)cc3ccccc23)c1O.OCCOCCN1CCN(C(c2ccccc2)c2ccc(Cl)cc2)CC1 [Hydroxyzine pamoate salt]	223.4	190.1	134.2	–	–	–	–	–	2 uM (% Quet) ([1]; test compound at 2 uM, NCC library screen, sheet "All OLga data", relative to quetiapine): 106.0 % Quet; 10 uM (% Quet) ([1]; test compound at 10 uM, NCC library screen, sheet "All OLga data", relative to quetiapine): 16.6 % Quet
O=c1c(O[C@@H]2O[C@H](CO)[C@H](O)[C@H](O)[C@H]2O)c(-c2ccc(O)c(O)c2)oc2cc(O)cc(O)c12 [Hyperoside]	–	–	–	90.3	29.8	14.6	–	–	activation at 0.08 µM ([1]; 0.08 uM test compound, relative to quetiapine, sheet "All OLga data", read-out: OL differentiation, 0.08 uM (% Quet)): -14.3%; activation at 0.4 µM [1, 10]: -70.9%
CC(C)Cc1ccc(C(C)C(=O)O)cc1 (centres unmarked) [Ibuprofen]	91.7	90.2	89.1	–	–	–	12	-9.8	–
COc1ccc(-c2oc3c(CC=C(C)C)c(O[C@@H]4O[C@H](CO)[C@@H](O)[C@H](O)[C@H]4O)cc(O)c3c(=O)c2O[C@@H]2O[C@@H](C)[C@H](O)[C@@H](O)[C@H]2O)cc1 [Icariin]	–	–	–	86.4	88.3	88.8	–	–	activation at 2 µM [1, 5]: 6.3%; activation at 10 µM [1, 6]: 9.8%
COC1=C(OC)C(=O)C(CCCCCCCCCCO)=C(C)C1=O [Idebenone]	–	–	–	99.7	80.9	11	–	–	activation at 0.4 µM [1, 10]: -11.1%
